“Also recorded” adds a separate entry of the source. Where a name gives a salt, the structure may show the parent alone. Non-standard residues stand in square brackets, D forms with d. Residues, ends and D or L forms follow the SMILES beside them.
Key:
Assay type in all cases: in vivo
[1] = test system: rat model of DKA; experiment: Arterial blood gases, electrolytes, lactate and hematocrit in diabetic ketoacidosis rats; details: for arterial blood pH, Day 4 (pre-tx) / arterial blood pCO2, Day 4 (pre-tx) / arterial blood pO2, Day 4 (pre-tx) / blood K+ level, Day 4 (pre-tx) / blood Na+ level, Day 4 (pre-tx) / blood hematocrit (Hct), Day 4 (pre-tx): baseline; for arterial blood pH, Day 4 (pre-tx): instrument could not record pH below 6.80, mean±SEM; for arterial blood pCO2, Day 4 (pre-tx) / arterial blood pO2, Day 4 (pre-tx) / blood K+ level, Day 4 (pre-tx) / blood Na+ level, Day 4 (pre-tx) / blood hematocrit (Hct), Day 4 (pre-tx): mean±SEM; for effect of treatment on arterial blood pH (acidosis): day 4, antagonist given with saline+insulin; for effect of treatment on arterial blood pH (acidosis) / effect of treatment on blood K+ levels / effect of treatment on blood lactate levels / effect of treatment on hematocrit: result in words; for effect of treatment on blood K+ levels / effect of treatment on blood lactate levels / effect of treatment on hematocrit: day 4, compared to diabetic untreated rats; for arterial blood pCO2, Day 4 (1 hour of tx) / arterial blood pCO2, Day 4 (end of tx) / arterial blood pO2, Day 4 (1 hour of tx) / arterial blood pO2, Day 4 (end of tx) / blood K+ level, Day 4 (1 hour tx) / blood K+ level, Day 4 (end of tx) / blood Na+ level, Day 4 (1 hour of tx) / blood Na+ level, Day 4 (end of tx) / blood hematocrit (Hct), Day 4 (1 hour of tx) / blood hematocrit (Hct), Day 4 (end of tx) / arterial blood pH, Day 4 (1 hour of tx) / arterial blood pH, Day 4 (end of tx): saline+insulin, alone or after bolus BMS-182874 9 mg/kg or BQ123 1 mg/kg
Source text: Arterial blood pH, pO2, pCO2, Na^+, K^+, lactate, and hematocrit were monitored prior to, at one hour, and at the end of treatment. Blood samples were drawn from the arterial cannula using blood gas sampling syringes (Innovative Medical Technologies, Inc. Leawood, Kans.) and analyzed using a GEM Premier 3000 unit (Instrument Laboratory, Lexington, Mass.). Blood samples were withdrawn from the femoral artery for baseline reading prior to start of treatment, after the first hour of treatment, and then at the end of the treatment (fifth hour of experiment).
(§1) Group 4: Diabetic saline/insulin treated (D-Saline+insulin treated): Rats were injected with streptozotocin in citrate buffer (150 mg/kg ip) to induce diabetes and ketoacidosis. On day three, rats were treated with 1.5 U/kg regular insulin (Humulin® R (Regular human insulin, rDNA origin). On day four, saline and insulin treatment was carried out. Rats were infused via cannulated femoral vein saline, 0.9% NaCl at 80 mL/kg/hr and 1.5 U/kg/hr regular insulin for one hour. During the next two through four hours, rats were infused with saline, 0.9% NaCl at 40 mL/kg/hr and 1.5 U/kg/hr regular insulin (Yuen et al., 2008).
(§2) Group 5: Diabetic BMS-182874/saline/insulin treated (D-BMS+Saline+insulin treated): Rats were injected with streptozotocin in citrate buffer (150 mg/kg ip) to induce diabetes and ketoacidosis. On day three, rats were treated with 1.5 U/kg regular insulin. On day four, rats were administered a bolus dose of selective ETA receptor antagonist, BMS-182874 (9 mg/kg), then saline and insulin treatment was carried out. Rats were infused via cannulated femoral vein saline, 0.9% NaCl at 80 mL/kg/hr and 1.5 U/kg/hr regular insulin for one hour. During the next two through four hours rats were infused with saline, 0.9% NaCl at 40 mL/kg/hr and 1.5 U/kg/hr regular insulin.
(§3) Group 6: Diabetic BQ123/saline/insulin treated (D-BQ+saline+insulin treated): Same as above for Group 5, except BQ123 (1 mg/kg body weight) is used as a substitute for BMS-182874 (9 mg/kg).
(§4) Data are presented as mean±SEM. The significance of differences was estimated by one-way analysis of variance (intra group comparison with respect to base line data) and two-way analysis of variance (inter group comparison with respect to corresponding time points from each groups) followed by application of the Dunnett's Multiple Comparisons and Bonferroni test respectively. A P value of less than 0.05 was considered to be significant. The statistical analysis was processed with GraphPad Prism software Version 5.00.

[2] = test system: rat model of DKA; experiment: Brain blood perfusion (Laser Doppler Flowmetry) in diabetic ketoacidosis rats; details: day 4, FIG. 6, antagonist given with saline+insulin, result in words
Description: A burr hole was drilled into the rat skull approximately 2 millimeters (mm) to the left of midline, being careful not to disturb the brain tissue itself. Cerebrovascular perfusion was measured via a fiber optic probe (PF407) applied to the surface of the rat brain. The probe was connected to a Periflux PF2b 4000 Laser Doppler Flowmetry unit (Perimed, Stockholm, Sweden). The perfusion was determined by measuring the passage of red blood cells through the capillaries.
as §1, §2, §3, §4

[3] = test system: rat model of DKA; experiment: Blood glucose in streptozotocin-induced diabetic ketoacidosis rats; details: for blood glucose, Day 4 (pre-tx): baseline before treatment on day 4, mean±SEM; for effect of treatment on blood glucose: day 4, result in words; for blood glucose, Day 4 (end of tx) / blood glucose, Day 4 (1 hour of tx): saline+insulin infusion, alone or after bolus BMS-182874 9 mg/kg or BQ123 1 mg/kg, mean±SEM; for blood glucose, Day 4 (end of tx): fifth hour
Description: Normotensive Sprague Dawley rats were kept on fasting for 2 hours with unlimited access to water. After 2 hours of fasting, rats were injected intraperitoneally with 150 mg/kg of streptozotocin in 0.05 mol/L citric acid, pH 4.3 to induced diabetes (Lam et al., 2005; Yuen et al., 2008), while non-diabetic control rats received an intraperitoneal injection of 0.05 mol/L citrate buffer (Lam et al., 2005; Yuen et al., 2008). Rats were allowed unlimited access to tap water and food. Each day rats were weighed and urine ketone levels were estimated by Urine Reagent Strips, 1K Parameter. Prior to streptozotocin or citrate buffer injection, baseline blood glucose levels were assessed by One Touch Ultra blood glucose strips from Lifescan, Milpitas, Calif., and baseline blood ketone levels were estimated using Cardiochek blood ketone analyzer. Blood glucose and ketone were measured again on day three and four to ensure the onset of hyperglycemia and ketoacidosis. […] Blood samples were withdrawn from the femoral […] for baseline reading prior to start of treatment, after the first hour of treatment, and then at the end of the treatment (fifth hour of experiment).
The animals were allowed to stabilize for at least 20 minutes following surgical procedures. Body weight, blood glucose, urinary ketone, blood ketone, arterial blood gases, blood electrolytes, mean arterial pressure, pulse pressure, heart rate, brain blood perfusion, brain and lung water content were determined in the following groups
as §1, §2, §3, §4

[4] = test system: rat model of DKA; experiment: Plasma ET-1 level (Enzyme Immunometric Assay) in diabetic ketoacidosis rats; details: for plasma ET-1, Day 4 (pre tx): baseline before treatment; for plasma ET-1, Day 4 (pre tx) / plasma ET-1, Day 4 (end of tx): mean±SEM; for effect of treatment on plasma ET-1 level: day 4, result in words (Table 4, FIG. 9); for plasma ET-1, Day 4 (end of tx): saline+insulin, alone or after bolus BMS-182874 9 mg/kg or BQ123 1 mg/kg
Description: In order to analyze the change in plasma ET-1 level during the treatment, blood samples were withdrawn through right femoral artery of the rats before and at the end of experiment and were collected into chilled EDTA tubes (1 mg/mL blood) containing aprotinin (500 KIU/mL of blood). The blood samples were centrifuged at 1,600×g for 15 minutes at 0° C. and plasma separated was stored at −70° C. until analyzed. ET-1 level was estimated using Assay's Design's Endothelin-1 Enzyme Immunometric Assay Kit (Nowicki et al., 2005; Brondani et al., 2007). Briefly, plasma samples and standards were added to wells coated with a monoclonal antibody specific for ET-1. The plate then was washed after 24 hours of incubation, leaving only bound ET-1 on the plate. A solution of horseradish peroxidase (HRP) labeled monoclonal antibody to ET-1 then was added, which binds to the ET-1 captured on the plate. The plate was incubated for 30 min, then washed to remove excess HRP labeled antibody. A solution of 3,3′,5,5′-tetramethylbenzidine (TMB) substrate was added, which generates a blue color when catalyzed by the HRP. Hydrochloric acid (1N) was added to stop the substrate reaction, and the resulting yellow color was read at 450 nm using DTX 800 Multimode detector. The data was analyzed with Multimode Detection Software (Beckman Coulter, Inc., Fullerton, Calif.). The measured optical density is directly proportional to the concentration of ET-1 in either standards/plasma. Blood samples from all the groups were collected before the start and at end of the treatment.
as §1, §2, §3, §4

[5] = day 4, BMS-182874+saline+insulin group

| SMILES | arterial blood pCO2, Day 4 (pre-tx) [1] [mmHg] | arterial blood pO2, Day 4 (pre-tx) [1] [mmHg] | blood K+ level, Day 4 (pre-tx) [1] [mmol/L] | blood Na+ level, Day 4 (pre-tx) [1] [mmol/L] | blood hematocrit (Hct), Day 4 (pre-tx) [1] [%] | effect of treatment on arterial blood pH (acidosis) [1] | effect of treatment on blood K+ levels [1] | effect of treatment on blood lactate levels [1] | effect of treatment on hematocrit [1] | arterial blood pCO2, Day 4 (1 hour of tx) [1] [mmHg] | arterial blood pCO2, Day 4 (end of tx) [1] [mmHg] | arterial blood pO2, Day 4 (1 hour of tx) [1] [mmHg] | arterial blood pO2, Day 4 (end of tx) [1] [mmHg] | blood K+ level, Day 4 (1 hour tx) [1] [mmol/L] | blood K+ level, Day 4 (end of tx) [1] [mmol/L] | blood Na+ level, Day 4 (1 hour of tx) [1] [mmol/L] | blood Na+ level, Day 4 (end of tx) [1] [mmol/L] | blood hematocrit (Hct), Day 4 (1 hour of tx) [1] [%] | blood hematocrit (Hct), Day 4 (end of tx) [1] [%] | arterial blood pH, Day 4 (1 hour of tx) ([1]; instrument floor 6.80) | also measured |
| --- | --- | --- | --- | --- | --- | --- | --- | --- | --- | --- | --- | --- | --- | --- | --- | --- | --- | --- | --- | --- | --- |
| Cc1noc(NS(=O)(=O)c2cccc3c(N(C)C)cccc23)c1C [BMS-182874, (5-Dimethylamino)-N-(3,4-dimethyl-5-isoxazolyl)-1-naphthalene sulfonamide hydrochloride] | 28.71 ± 2.08 | 156.71 ± 7.11 | 4.21 ± 0.33 | 135.71 ± 2.06 | 45.71 ± 1.48 | produced a significant improvement in arterial blood pH | significantly reduced the change in blood K^+ levels | significantly reduced the change in blood lactate levels | significantly reduced the hematocrit | 30.57 ± 1.94 | 30.57 ± 2.23 | 135.57 ± 6.37 | 143.85 ± 6.59 | 2.62 ± 0.29 | 2.75 ± 0.27 | 143.42 ± 1.84 | 146.14 ± 1.14 | 33.28 ± 1.52 | 29.28 ± 2.22 | 6.81 ± 0.01 | arterial blood pH, Day 4 (pre-tx) ([1]; hydrochloride): 6.82±0.02; arterial blood pH, Day 4 (pre-tx) ([1]; listed as BMS, hydrochloride): 6.82 ± 0.02; blood K+ levels, after treatment (to) [1, 5]: 2.75 ± 0.27 mM; blood K+ levels, before treatment (from) [1, 5]: 4.21 ± 0.33 mM; arterial blood pH, Day 4 (end of tx) ([1]; instrument floor 6.80, hydrochloride): 6.91±0.02; arterial blood pH, Day 4 (end of tx) ([1]; instrument floor 6.80, listed as BMS, hydrochloride): 6.91 ± 0.02; effect on cerebral blood perfusion ([2]; hydrochloride): significantly blocked; also recorded: prevented; effect on cerebral blood perfusion ([2]; listed as BMS182874, hydrochloride): prevented an insulin induced increase in cerebral blood perfusion; blood glucose, Day 4 (pre-tx) [3]: 522 ± 18 mg/dL; effect of treatment on blood glucose [3]: did not significantly affect blood glucose; blood glucose, Day 4 (end of tx) [3]: 263 ± 32 mg/dL; blood glucose, Day 4 (1 hour of tx) [3]: 446 ± 36 mg/dL; plasma ET-1, Day 4 (pre tx) [4]: 11.93 ± 2.01 pg/mL; effect of treatment on plasma ET-1 level [4]: did not significantly affect plasma ET-1 level; plasma ET-1, Day 4 (end of tx) [4]: 20.40 ± 3.23 pg/mL |
| CC(C)C[C@@H]1NC(=O)[C@@H](C(C)C)NC(=O)[C@@H]2CCCN2C(=O)[C@@H](CC(=O)O)NC(=O)[C@@H](Cc2c[nH]c3ccccc23)NC1=O [BQ123, Cyclo(D-Trp-D-Asp-Pro-D-Val-Leu)] (cyclo(L[dW][dD]P[dV])) | 25.00 ± 3.7 | 130.2 ± 14.04 | 3.4 ± 0.45 | 140.00 ± 2.87 | 42.6 ± 4.81 | produced a significant improvement in arterial blood pH | significantly reduced the change in blood K^+ levels | significantly reduced the change in blood lactate levels | significantly reduced the hematocrit | 23.6 ± 2.17 | 23.2 ± 1.95 | 128.4 ± 11.006 | 141.2 ± 4.6 | 2.04 ± 0.29 | 2.38 ± 0.34 | 147 ± 1.3 | 150.04 ± 2.43 | 31.4 ± 2.97 | 31.8 ± 2.21 | 6.81 ± 0.01 | arterial blood pH, Day 4 (pre-tx) [1]: 6.82 ± 0.02; arterial blood pH, Day 4 (end of tx) ([1]; instrument floor 6.80): 6.91 ± 0.01; effect on cerebral blood perfusion [2]: significantly blocked; also recorded: prevented an insulin induced increase in cerebral blood perfusion; blood glucose, Day 4 (pre-tx) [3]: 484 ± 17 mg/dL; effect of treatment on blood glucose [3]: did not significantly affect blood glucose; blood glucose, Day 4 (end of tx) [3]: 312 ± 55 mg/dL; blood glucose, Day 4 (1 hour of tx) [3]: 462 ± 55 mg/dL; plasma ET-1, Day 4 (pre tx) [4]: 15.78 ± 4.11 pg/mL; effect of treatment on plasma ET-1 level [4]: did not significantly affect plasma ET-1 level; plasma ET-1, Day 4 (end of tx) [4]: 26.53 ± 5.52 pg/mL |
